Source: patent US6649402B2, “Microfabricated microbial growth assay method and apparatus” (Wisconsin Alumni Research Foundation, priority 2001, dated 2003)

Tested on: E. coli K-12 MG 1655
Test: microbial growth assay by impedance (capacitance and resistance) measurement in 30 μl wells
Type: cell-based
Settings: 37° C.
Procedure: As an example of the utilization of the apparatus 20 of FIGS. 1 and 2, a single colony of E. coli K-12 MG 1655 was used to inoculate five ml of Luria Broth (LB) which was grown overnight at 37° C. with constant aeration. A 1% inoculum was used to subculture in fresh LB medium and grew to OD600 of 0.5 (measured by a Beckman DU-20 spectrophotometer). 15 μl of cell culture was mixed with 15 μl of LB medium in samples with and without ampicillin (100 μg/ml), and aliquoted into the wells 22. In addition, an equal volume of LB medium (30 μl) with ampicillin was aliquoted into an additional well to function as a negative control.
The switch/control unit 34 was used to switch the connection of the LCR meter 36 to the conductors 30 and 31 leading to the electrodes of the wells 22 in sequence. A 10 mV rms alternating current signal of varying frequency (between 75 kHz and 30 MHz) was used for electrical excitation and was applied between the electrodes 24 and 25. […] At each frequency, impedance (capacitance and resistance) was measured between the electrodes 24 and 25 for each of the four wells. […] The values of the impedance (assuming a parallel RC equivalent circuit model, resistance and capacitance, R and C) between the electrodes 24 and 25 at each of the cells was recorded periodically over about 16 hours under the control of the computer 41. […]

With `CC1(C)S[C@@H]2[C@H](NC(=O)[C@H](N)c3ccccc3)C(=O)N2[C@H]1C(=O)O` [ampicillin] the “capacitance (and resistance) between the electrodes at a well containing bacteria over time” value (ampicillin 100 μg/ml in LB medium, measured at 75 kHz and 400 kHz, about 16 hours, relative to control well without bacteria, without ampicillin capacitance increases exponentially) was “remains constant” and the “time within which the antibacterial effect can be detected” value (ampicillin 100 μg/ml, E. coli in LB medium, impedance readout) was “less than one hour”.
